How the values were obtained:
[1] = tested on: E. coli UBMS 89-2 (Sensitive); test: MIC, agar dilution; type: cell-based; conditions: E. coli UBMS 89-2 Tet Sens.; Table IA; unit assumed
[2] = tested on: E. coli BAJ9003; test: MIC, agar dilution (Table IA); type: cell-based; conditions: unit assumed
[3] = tested on: E. coli MC4100 TetB; test: MIC, agar dilution (Table IA); type: cell-based; conditions: unit assumed
[4] = tested on: Ps. acruginosa ATCC 27853; test: MIC, agar dilution (Table IA); type: cell-based; conditions: unit assumed
[5] = tested on: E. coli J3272 TetC; test: MIC, agar dilution (Table IA); type: cell-based; conditions: unit assumed
[6] = tested on: S. aureus ROSE (MP); test: MIC, agar dilution (Table IA); type: cell-based; conditions: unit assumed
[7] = tested on: E. coli UBMS 88-1 (tetB); test: MIC, agar dilution; type: cell-based; conditions: E. coli UBMS 88-1 TetB; Table IA; unit assumed
[8] = tested on: S. aureus UBMS 90-1 (tetM); test: MIC, agar dilution; type: cell-based; conditions: S. aureus UBMS 90-1 TetM; Table IA; unit assumed
[9] = tested on: S. aureus ATCC 29213 (Sensitive); test: MIC, agar dilution; type: cell-based; conditions: S. aureus ATCC 29213; Table IA; unit assumed
[10] = tested on: S. aureus SMITH (sens); test: In vivo antibacterial evaluation, acute lethal infection in mice; conditions: Oral
Excerpt: In Vivo Antibacterial Evaluation (Table VII)

[11] = tested on: E. coli UBMS 90-4 (tetM); test: MIC, agar dilution; type: cell-based; conditions: E. coli UBMS 90-4 TetM; Table IA; unit assumed
[12] = tested on: E. coli J2175; test: MIC, agar dilution (Table IA); type: cell-based; conditions: unit assumed
[13] = tested on: E. coli J3272 Tet sens.; test: MIC, agar dilution (Table IA); type: cell-based; conditions: unit assumed
[14] = tested on: E. coli ATCC 25922; test: MIC, agar dilution; type: cell-based; conditions: E. coli ATCC 25922; Table IA; unit assumed
[15] = tested on: S. aureus UBMS 90-3 (Sensitive); test: MIC, agar dilution; type: cell-based; conditions: S. aureus UBMS 90-3; Table IA; unit assumed
[16] = tested on: X. maltophilia NEMC 87210; test: MIC, agar dilution (Table IA); type: cell-based; conditions: unit assumed
[17] = tested on: E. faecalis ATCC 29212; test: MIC, agar dilution; type: cell-based; conditions: E. faecalis ATCC 29212; Table IA; unit assumed
[18] = tested on: S. aureus IVES 1983 (meth. resistant); test: MIC, agar dilution; type: cell-based; conditions: S. aureus IVES 1983; Table IA; unit assumed
[19] = tested on: E. faecalis 12201; test: MIC, agar dilution; type: cell-based; conditions: Enterococcus 12201; Table IA; unit assumed
[20] = tested on: S. mariescens FDOR 8733; test: MIC, agar dilution (Table IA); type: cell-based; conditions: unit assumed
[21] = tested on: E. coli UBMS 90-5; test: MIC, agar dilution (Table IA); type: cell-based; conditions: unit assumed
[22] = tested on: S. aureus SMITH (sens); test: In vivo antibacterial evaluation, acute lethal infection in mice; conditions: Intraveneous
[23] = tested on: E. coli PRP1 TetA; test: MIC, agar dilution (Table IA); type: cell-based; conditions: unit assumed
[24] = tested on: S. haemolyticus AVAH 88-3; test: MIC, agar dilution; type: cell-based; conditions: S. hemolyticus AVHAH 88-3; Table IA; unit assumed
[25] = tested on: E. coli UBMS 89-1 (tetM); test: MIC, agar dilution; type: cell-based; conditions: E. coli UBMS 89-1 TetM; Table IA; unit assumed
[26] = tested on: S. aureus UBMS 88-4 (Sensitive); test: MIC, agar dilution; type: cell-based; conditions: S. aureus UBMS 88-4; Table IA; unit assumed
[27] = tested on: S. aureus UBMS 88-7 (tetK); test: MIC, agar dilution; type: cell-based; conditions: S. aureus UBMS 88-7 TetK; Table IA; unit assumed
[28] = tested on: S. aureus Smith (Sensitive); test: MIC, agar dilution; type: cell-based; conditions: S. aureus SMITH (MP); Table IA; unit assumed
[29] = tested on: S. aureus UBMS 88-5 (tetM); test: MIC, agar dilution; type: cell-based; conditions: S. aureus UBMS 88-5 TetM; Table IA; unit assumed
[30] = tested on: S. aureus IVES 2943 (meth. resistant); test: MIC, agar dilution; type: cell-based; conditions: S. aureus IVES 2943; Table IA; unit assumed
[31] = tested on: E. coli #311 (MP); test: MIC, agar dilution (Table IA); type: cell-based; conditions: unit assumed
[32] = tested on: E. coli J3272 TetD; test: MIC, agar dilution (Table IA); type: cell-based; conditions: unit assumed
[33] = tested on: S. aureus NEMC 8769/89-4; test: MIC, agar dilution (Table IA); type: cell-based; conditions: unit assumed
[34] = tested on: S. aureus UBMS 90-2 (tetM); test: MIC, agar dilution; type: cell-based; conditions: S. aureus UBMS 90-2 TetM; Table IA; unit assumed

CC(C)CNCC(=O)Nc1cc(N(C)C)c2c(c1O)C(=O)C1=C(O)C3(O)C(=O)C(C(N)=O)=C(O)C(N(C)C)C3CC1C2.Cl.Cl (stereo not drawn) [TT, [4S-(4alpha,12aalpha)]-4,7-Bis(dimethylamino)-1,4,4a,5,5a,6,11,12a-octahydro-3,10,12,12a-tetrahydroxy-9-[[[(2-methylpropyl)amino]acetyl]amino)-1,11-dioxo-2-naphthacenecarboxamide dihydrochloride]
Antibacterial activity (MIC) [1]: 0.5 µg/mL
Antibacterial activity (MIC) [2]: 0.06 µg/mL
Antibacterial activity (MIC) [3]: 0.5 µg/mL
Antibacterial activity (MIC) [4]: 16 µg/mL
Antibacterial activity (MIC) [5]: 0.5 µg/mL
Antibacterial activity (MIC) [6]: 2 µg/mL
Antibacterial activity (MIC) [7]: 0.5 µg/mL
Antibacterial activity (MIC) [8]: 0.25 µg/mL
Antibacterial activity (MIC) [9]: 0.25 µg/mL
ED50 [10]: 8 to 16 mg/kg
Antibacterial activity (MIC) [11]: 0.5 µg/mL
Antibacterial activity (MIC) [12]: 0.5 µg/mL
Antibacterial activity (MIC) [13]: 0.5 µg/mL
Antibacterial activity (MIC) [14]: 0.5 µg/mL
Antibacterial activity (MIC) [15]: 0.12 µg/mL
Antibacterial activity (MIC) [16]: 0.5 µg/mL
Antibacterial activity (MIC) [17]: 0.25 µg/mL
Antibacterial activity (MIC) [18]: 2 µg/mL
Antibacterial activity (MIC) [19]: 0.25 µg/mL
Antibacterial activity (MIC) [20]: 4 µg/mL
Antibacterial activity (MIC) [21]: 0.5 µg/mL
ED50 [22]: 1 to 2 mg/kg
Antibacterial activity (MIC) [23]: 2 µg/mL
Antibacterial activity (MIC) [24]: 0.5 µg/mL
Antibacterial activity (MIC) [25]: 0.25 µg/mL
Antibacterial activity (MIC) [26]: 0.25 µg/mL
Antibacterial activity (MIC) [27]: 2 µg/mL
Antibacterial activity (MIC) [28]: 0.12 µg/mL
Antibacterial activity (MIC) [29]: 0.25 µg/mL
Antibacterial activity (MIC) [30]: 2 µg/mL
Antibacterial activity (MIC) [31]: 0.5 µg/mL
Antibacterial activity (MIC) [32]: 0.12 µg/mL
Antibacterial activity (MIC) [33]: 0.03 µg/mL
Antibacterial activity (MIC) [34]: 0.25 µg/mL

CNC(C)C(=O)Nc1cc(N(C)C)c2c(c1O)C(=O)C1=C(O)[C@]3(O)C(=O)C(C(N)=O)=C(O)[C@@H](N(C)C)C3CC1C2.Cl.Cl (stereo partly drawn) [YY, [4S-(4alpha,12aalpha))-4,7-Bis(dimethylamino)-1,4,4a,5,5a,6,11,12a-octahydro-3,10,12,12a-tetrahydroxy-9-[[2-(methylamino)-1-oxopropyl]amino]-1,11-dioxo-2-naphthacenecarboxamide dihydrochloride]
Antibacterial activity (MIC) [1]: 0.5 µg/mL
Antibacterial activity (MIC) [2]: 0.06 µg/mL
Antibacterial activity (MIC) [3]: 0.5 µg/mL
Antibacterial activity (MIC) [4]: 16 µg/mL
Antibacterial activity (MIC) [5]: 1 µg/mL
Antibacterial activity (MIC) [6]: 8 µg/mL
Antibacterial activity (MIC) [7]: 0.5 µg/mL
Antibacterial activity (MIC) [8]: 0.25 µg/mL
Antibacterial activity (MIC) [9]: 0.5 µg/mL
ED50 [10]: >16 mg/kg
Antibacterial activity (MIC) [11]: 0.5 µg/mL
Antibacterial activity (MIC) [12]: 0.5 µg/mL
Antibacterial activity (MIC) [13]: 0.5 µg/mL
Antibacterial activity (MIC) [14]: 0.5 µg/mL
Antibacterial activity (MIC) [15]: 0.12 µg/mL
Antibacterial activity (MIC) [16]: 4 µg/mL
Antibacterial activity (MIC) [17]: 0.12 µg/mL
Antibacterial activity (MIC) [18]: 4 µg/mL
Antibacterial activity (MIC) [19]: 0.25 µg/mL
Antibacterial activity (MIC) [20]: 8 µg/mL
Antibacterial activity (MIC) [21]: 0.5 µg/mL
ED50 [22]: 0.5 to 1 mg/kg
Antibacterial activity (MIC) [23]: 2 µg/mL
Antibacterial activity (MIC) [24]: 0.5 µg/mL
Antibacterial activity (MIC) [25]: 0.5 µg/mL
Antibacterial activity (MIC) [26]: 0.5 µg/mL
Antibacterial activity (MIC) [27]: 4 µg/mL
Antibacterial activity (MIC) [28]: 0.25 µg/mL
Antibacterial activity (MIC) [29]: 0.5 µg/mL
Antibacterial activity (MIC) [30]: 8 µg/mL
Antibacterial activity (MIC) [31]: 0.5 µg/mL
Antibacterial activity (MIC) [32]: 0.25 µg/mL
Antibacterial activity (MIC) [33]: 0.12 µg/mL
Antibacterial activity (MIC) [34]: 0.25 µg/mL
